From US10030012B2, “Piperidin-1-yl and azepin-1-yl carboxylates as muscarinic M4 receptor agonists” (Heptares Therapeutics Limited, priority 2013, dated 2018) come the findings set out here.

Structures are written as SMILES.

One test addresses human M2 receptor (Homo sapiens (Human), UniProt P08172). The experiment in a line: In vitro M2 functional assay (intracellular calcium, FLiPR Tetra). The settings on record: for EC50 / M2 EC50: CHOK1 cells stably expressing human M2 receptor and Gα16, calcium flux, No Response = no significant response of calcium flux indicative of agonism; for M2 % RE: relative efficacy to an EC100 concentration of acetylcholine; for activation at 10 µM: response at 10 μM compound, relative to an EC100 concentration of acetylcholine, read-out: M2 % RE @ 10 μM. The format is cell-based. As for the experimental part:
(§1) In Vitro M4 &M2 Functional Assay
(§2) The functional activity of compounds at the M4 and M2 receptors was determined by measuring changes in the level of intracellular calcium ions caused by signalling cascades mediated by the receptor. Intracellular Calcium levels were measured using a calcium sensitive fluorescent dye, calcium 5 (Molecular Devices) The changes in fluorescence were monitored by a fluorescent imager, FLiPR Tetra (Molecular devices). Increases in intracellular calcium were readily detected upon activation of both receptors by the muscarinic receptor agonist Acetylcholine.
(§3) CHOK1 cells stably expressing human M4 or M2 receptor and co-expressing the accessory g-protein Gα16 were routinely grown as monolayers in Hams-F12 medium (Invitrogen) supplemented with 10% foetal bovine serum (FBS) (Hyclone), 500 ug/mL Geneticin and 250 ug/mL zeocin (both invitrogen) in 5% CO2 at 37° C. Once confluent is cells cryopreserved by freezing at −186° C. in freezing solution (90% FBS 10% DMSO) (Sigma-Aldrich Co.). Twenty-four hours prior to testing cells resuscitated and freezing media removed via centrifugation, cells then seeded in a black walled clear bottom 384 well plates (Corning) at a density of 15,000 cells/well in Hams F12 media supplemented with 10% FBS. On the day of assay, growth media was removed and replaced with 63 μl of Calcium 5 dye solution (Molecular Devices) in assay buffer (HBSS, 20 mM HEPES, 0.1% BSA, 1 mM Probenecid pH7.4 (Sigma-Aldrich Co.)) per well (each vial of Calcium 5 resuspended in 27 mL of assay buffer). Cells were then incubated for 45 minutes at 37° C., 5% CO2. Compound was serially diluted in DMSO (log/half log) before being diluted 1:20 with assay buffer. 7 μl of compound diluted in assay buffer was then added to cells on FLiPR tetra and fluorescence intensity measured for 5 minutes. EC50 values for compounds were determined from ten point half log scale dose-response studies and represent the concentration of compound required to […] maximal response. Curves were generated using the average of duplicate wells for each data point and analyzed using non-linear regression of four parameter dose response. Percentage Relative efficacy (RE) to an EC100 concentration of acetylcholine was reported for all compounds. The results are set out in Table 3 below in which the term “No Response” means that there was no significant response of calcium flux in the assay indicative of agonism.
A general note: Calcium assays in cells follow changes in intracellular calcium, usually with a dye or a luminescent sensor.

For a further test, the target named is human M4 receptor (Homo sapiens (Human), UniProt P08173). The experiment in a line: In vitro M4 functional assay (intracellular calcium, FLiPR Tetra). The settings on record: for Emax: relative efficacy to an EC100 concentration of acetylcholine, read-out: M4 % RE. The class given is cell-based. As for the experimental part:
as §1, §2, §3

Where [1] appears, read: CHOK1 cells stably expressing human M4 receptor and Gα16, calcium flux.

Sequence of human M4 receptor (P08173 whole entry): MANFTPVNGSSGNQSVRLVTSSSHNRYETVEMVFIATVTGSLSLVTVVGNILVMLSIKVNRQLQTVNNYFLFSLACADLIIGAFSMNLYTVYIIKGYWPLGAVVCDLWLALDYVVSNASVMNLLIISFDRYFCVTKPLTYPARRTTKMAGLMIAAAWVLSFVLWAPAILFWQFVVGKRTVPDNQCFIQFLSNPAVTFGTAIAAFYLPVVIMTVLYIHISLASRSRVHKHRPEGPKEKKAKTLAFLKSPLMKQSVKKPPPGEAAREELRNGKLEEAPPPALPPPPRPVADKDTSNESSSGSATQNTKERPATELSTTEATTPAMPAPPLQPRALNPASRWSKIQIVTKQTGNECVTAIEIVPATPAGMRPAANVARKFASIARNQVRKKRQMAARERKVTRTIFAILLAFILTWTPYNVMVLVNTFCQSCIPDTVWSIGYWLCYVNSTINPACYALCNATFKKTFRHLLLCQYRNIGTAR
Sequence of human M2 receptor (P08172 whole entry): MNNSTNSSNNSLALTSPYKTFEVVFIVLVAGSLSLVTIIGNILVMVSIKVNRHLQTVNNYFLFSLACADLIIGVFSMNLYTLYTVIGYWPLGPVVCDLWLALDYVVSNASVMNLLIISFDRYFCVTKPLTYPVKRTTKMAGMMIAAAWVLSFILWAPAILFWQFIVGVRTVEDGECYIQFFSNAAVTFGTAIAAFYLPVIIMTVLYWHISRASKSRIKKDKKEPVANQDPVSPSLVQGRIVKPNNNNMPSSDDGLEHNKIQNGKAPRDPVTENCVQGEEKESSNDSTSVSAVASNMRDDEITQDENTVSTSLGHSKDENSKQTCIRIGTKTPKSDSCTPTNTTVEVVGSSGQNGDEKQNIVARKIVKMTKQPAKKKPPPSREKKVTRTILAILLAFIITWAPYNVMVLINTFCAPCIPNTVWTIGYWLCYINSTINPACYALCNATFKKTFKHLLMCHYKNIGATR

In general, EC50 refers to the midpoint of the concentration-response curve. On to `CCOC(=O)N1CCCC(N2CCC(n3nccc3-c3cnn(C(C)C)c3)CC2)CC1` (stereo not drawn) [Example 22, Ethyl 4-(4-{5-[1-(propan-2-yl)-1H-pyrazol-4-yl]-1H-pyrazol-1-yl}piperidin-1-yl)azepane-1-carboxylate], for which, on human M2 receptor, the EC50 was 680 nM and the “M2 % RE” value worked out at 38%. At human M4 receptor (setting [1]), the concentration for a half-maximal effect (EC50) amounted to 200 nM. On human M4 receptor, the Emax stood at 68%.
`CCOC(=O)N1CCCC(N2CCC(c3ccncc3)CC2)CC1` (stereo not drawn) [Example 30, Ethyl 4-[4-(pyridin-4-yl)piperidin-1-yl]azepane-1-carboxylate]: the “M2 EC50” value on human M2 receptor is recorded as “No Response”. The concentration for a half-maximal effect (EC50) on human M4 receptor (setting [1]) was found to be 1660 nM. On human M4 receptor, the Emax is 27%.
The corresponding values for `CCOC(=O)N1CCCC(N2CCC(c3cncc(OC)c3)CC2)CC1` (stereo not drawn) [Example 45, Ethyl 4-[4-(5-methoxypyridin-3-yl)piperidin-1-yl]azepane-1-carboxylate] are “No Response”, 460 nM and 25%.
Turning to `CCOC(=O)N1CCCC(N2CCC(c3ncccn3)CC2)CC1` (stereo not drawn) [Example 74, Ethyl 4-[4-(pyrimidin-2-yl)piperidin-1-yl]azepane-1-carboxylate], on human M2 receptor, the EC50 is above 10000 nM and the activation at 10 µM stood at 20%. Besides, the half-maximal effective concentration (EC50) on human M4 receptor (setting [1]) was found to be 1050 nM. In addition, at human M4 receptor, the Emax turned out to be 61%.
On to `CCOC(=O)N1CCCC(N2CCC(c3cccnc3-c3cnn(C(C)C)c3)CC2)CC1` (stereo not drawn) [Example 61, Ethyl 4-(4-{2-[1-(propan-2-yl)-1H-pyrazol-4-yl]pyridin-3-yl}piperidin-1-yl)azepane-1-carboxylate], for which the “M2 EC50” value at human M2 receptor is on record as “No Response”. Also, the EC50 at human M4 receptor (setting [1]) turned out to be 150 nM. Besides, the Emax at human M4 receptor was 66%.
Taken in the same sequence, the figures for `CCOC(=O)N1CCCC(N2CCC(c3nccnc3OC)CC2)CC1` (stereo not drawn) [Example 40, Ethyl 4-[4-(3-methoxypyrazin-2-yl)piperidin-1-yl]azepane-1-carboxylate] were “No Response”, 140 nM and 62%.
For the compound `CCOC(=O)N1CCCC(N2CCC(n3nccc3C)CC2)CC1` (stereo not drawn) [Example 12, Ethyl 4-[4-(5-methyl-1H-pyrazol-1-yl)piperidin-1-yl]azepane-1-carboxylate], on human M2 receptor, the 50% effective concentration (EC50) is above 10000 nM and the activation at 10 µM worked out at 28%. The EC50 on human M4 receptor (setting [1]) came out at 520 nM. Also, the Emax at human M4 receptor was determined as 82%.
As to `CCOC(=O)N1CCCC(N2CCC(n3nccc3C(=O)NCC3CC3)CC2)CC1` (stereo not drawn) [Example 24, Ethyl 4-(4-{5-[(cyclopropylmethyl)carbamoyl]-1H-pyrazol-1-yl}piperidin-1-yl)azepane-1-carboxylate], the “M2 EC50” value at human M2 receptor is “No Response”. Moreover, the 50% effective concentration (EC50) at human M4 receptor (setting [1]) was determined as 1370 nM. In addition, the Emax at human M4 receptor stood at 45%.
Taken in the same sequence, the figures for `CCOC(=O)N1CCC(N2CCC(c3cc(C)cnc3OCC)CC2)CC1` [Example 47, Ethyl 4-[4-(2-ethoxy-5-methylpyridin-3-yl)piperidin-1-yl]piperidine-1-carboxylate] were “No Response”, 160 nM and 72%.
As to `CCOC(=O)N1CCCC(N2CCC(c3cccnc3OCC)CC2)CC1` (stereo not drawn) [Example 53, Ethyl 4-[4-(2-ethoxypyridin-3-yl)piperidin-1-yl]azepane-1-carboxylate], the “M2 EC50” value on human M2 receptor is “No Response”. Besides, the EC50 at human M4 receptor (setting [1]) was found to be 60 nM. The Emax on human M4 receptor stood at 80%.
The corresponding values for `CCOC(=O)N1CCCC(N2CCC(OC)(c3nccn3C)CC2)CC1` (stereo not drawn) [Example 13, Ethyl 4-[4-methoxy-4-(1-methyl-1H-imidazol-2-yl)piperidin-1-yl]azepane-1-carboxylate] are “No Response”, 2880 nM and 24%.
Consider `CCOC(=O)N1CCCC(N2CCC(c3cccnc3OC(C)C)CC2)CC1` (stereo not drawn) [Example 55, Ethyl 4-{4-[2-(propan-2-yloxy)pyridin-3-yl]piperidin-1-yl}azepane-1-carboxylate], for which the 50% effective concentration (EC50) on human M2 receptor was above 10000 nM; on human M4 receptor (setting [1]), 130 nM. Also, the activation at 10 µM at human M2 receptor was found to be 26%. The Emax on human M4 receptor was 67%.
Take `CCOC(=O)N1CCCC(N2CCC(c3cc(C(F)(F)F)cnc3OC)CC2)CC1` (stereo not drawn) [Example 43, Ethyl 4-{4-[2-methoxy-5-(trifluoromethyl)pyridin-3-yl]piperidin-1-yl}azepane-1-carboxylate]: the EC50 worked out at 180 nM on human M2 receptor and 20 nM on human M4 receptor (setting [1]). In addition, the “M2 % RE” value on human M2 receptor was found to be 62%. In addition, on human M4 receptor, the Emax turned out to be 94%.
Regarding `CCOC(=O)N1CCCC(N2CCC(c3cccnc3-c3ccnn3C)CC2)CC1` (stereo not drawn) [Example 64, Ethyl 4-{4-[2-(1-methyl-1H-pyrazol-5-yl)pyridin-3-yl]piperidin-1-yl}azepane-1-carboxylate], on human M2 receptor, the “M2 EC50” value is reported as “No Response”. Also, the EC50 at human M4 receptor (setting [1]) amounted to 3140 nM. Further, on human M4 receptor, the Emax was 35%.
The corresponding values for `CCOC(=O)N1CCCC(N2CCC(n3nccc3COC)CC2)CC1` (stereo not drawn) [Example 23, Ethyl 4-{4-[5-(methoxymethyl)-1H-pyrazol-1-yl]piperidin-1-yl}azepane-1-carboxylate] are “No Response”, 750 nM and 67%.
Taken in the same sequence, the figures for `CCOC(=O)N1CCCC(N2CCC(n3cc(-c4ccc(Cl)cc4)cn3)CC2)CC1` (stereo not drawn) [Example 8, Ethyl 4-{4-[4-(4-chlorophenyl)-1H-pyrazol-1-yl]piperidin-1-yl}azepane-1-carboxylate] were “No Response”, 320 nM and 59%.
The corresponding values for `CCOC(=O)N1CCCC(N2CCC(c3cncnc3OC)CC2)CC1` (stereo not drawn) [Example 51, Ethyl 4-[4-(4-methoxypyrimidin-5-yl)piperidin-1-yl]azepane-1-carboxylate] are “No Response”, 310 nM and 69%.
Consider `CCOC(=O)N1CCCC(N2CCC(n3nccc3-c3sc(C)nc3C)CC2)CC1` (stereo not drawn) [Example 25, Ethyl 4-{4-[5-(dimethyl-1,3-thiazol-5-yl)-1H-pyrazol-1-yl]piperidin-1-yl}azepane-1-carboxylate], for which the “M2 EC50” value on human M2 receptor is recorded as “No Response”. Also, the EC50 at human M4 receptor (setting [1]) stood at 270 nM. In addition, on human M4 receptor, the Emax was determined as 46%.
Take `CCOC(=O)N1CCCC(N2CCC(c3cccnc3-c3ncco3)CC2)CC1` (stereo not drawn) [Example 80, Ethyl 4-{4-[2-(1,3-oxazol-2-yl)pyridin-3-yl]piperidin-1-yl}azepane-1-carboxylate]: the “M2 EC50” value on human M2 receptor was “No Response”. Moreover, on human M4 receptor (setting [1]), the 50% effective concentration (EC50) was determined as 850 nM. On human M4 receptor, the Emax came to 43%.
Taken in the same sequence, the figures for `CCOC(=O)N1CCCC(N2CCC(c3cc(-c4cccs4)n[nH]3)CC2)CC1` (stereo not drawn) [Example 17, Ethyl 4-{4-[3-(thiophen-2-yl)-1H-pyrazol-5-yl]piperidin-1-yl}azepane-1-carboxylate] were “No Response”, 810 nM and 50%.
For `CCOC(=O)N1CCCC(N2CCC(c3ccnn3C)CC2)CC1` (stereo not drawn) [Example 14, Ethyl 4-[4-(1-methyl-1H-pyrazol-5-yl)piperidin-1-yl]azepane-1-carboxylate], on human M2 receptor, the “M2 EC50” value was “No Response”. Moreover, the EC50 at human M4 receptor (setting [1]) amounted to 750 nM. For the same compound, the Emax on human M4 receptor is 55%.
For the compound `CCOC(=O)N1CCCC(N2CCC(n3nccc3C3CC3)CC2)CC1` (stereo not drawn) [Example 20, Ethyl 4-[4-(5-cyclopropyl-1H-pyrazol-1-yl)piperidin-1-yl]azepane-1-carboxylate], the concentration for a half-maximal effect (EC50) at human M2 receptor is 2260 nM; at human M4 receptor (setting [1]), 190 nM. In addition, the “M2 % RE” value at human M2 receptor is on record as 37%. On human M4 receptor, the Emax was 77%.
Take `CCOC(=O)N1CCC[C@H](N2CCC(c3cccnc3OC)CC2)CC1` [Example 85, Ethyl (4S)-4-[4-(2-methoxypyridin-3-yl)piperidin-1-yl]azepane-1-carboxylate]: the “M2 EC50” value on human M2 receptor is given as “No response”. For the same compound, the 50% effective concentration (EC50) on human M4 receptor (setting [1]) was found to be 26 nM. Moreover, the Emax at human M4 receptor was determined as 91%.
For `CCOC(=O)N1CCC[C@@H](N2CCC(n3cccn3)CC2)CC1` [Example 82, Ethyl (4R)-4-[4-(1H-pyrazol-1-yl)piperidin-1-yl]azepane-1-carboxylate], at human M4 receptor (setting [1]), the half-maximal effective concentration (EC50) worked out at 460 nM. In addition, at human M4 receptor, the Emax was 80%.
For the compound `CCOC(=O)N1CCC[C@@H](N2CCC(c3nccn3C)CC2)CC1` [Example 84, Ethyl (4R)-4-[4-(1-methyl-1H-imidazol-2-yl)piperidin-1-yl]azepane-1-carboxylate], the “M4 EC50” value on human M4 receptor (setting [1]) is “No response”.
